Experimental findings from patent publication US10933141B2, “Formulations with reduced degradation of polysorbate” (Genentech, Inc., priority 2015, dated 2021) are described below.

“Also recorded” adds a separate entry of the source.

A short description of data set [1]: Solubilization of existing visible and subvisible particles from enzymatic PS20 degradation (HIAC, Seidenader). Format: physicochemical. The settings on record: for amount of SVP after excipient spiked into degraded PS20 solution: 0.05% PS20 degraded with 37.5 μg/mL PPL, 35.5 mM HP-α-CD or HP-γ-CD, 0.5-15% HP-β-CD, 5° C. overnight, HIAC. As to the method: Subvisible particles were measured using a HIAC 9703 particle counter equipped with an HRDL-150 detector and a 1 mL syringe. Performance of the instrument was verified with NIST-traceable 2 μm Polystyrene bead standards at 3000 counts/mL before each measurement session. The HIAC instrument was configured to a 10 mL/min flow rate, 0.1 mL tare volume, and 0.4 mL sample volume. The samples were analyzed using 4 runs of 0.4 mL sips, with the first run of each sample was discarded to prevent measurement error due to sample carryover. Results were reported as the average values for 1.4, 2, 5, 10, 15, and 25, 50 μm analysis filter sizes.
Vials were inspected for visible particulates using a Seidenader V90-T visual inspection unit (Markt Schwaben, Germany) with vial carriage tilted to 60 degrees. Visible particle inspection of samples was performed by placing the glass vials in the holder and rotating in the presence of a Tyndall light directed through the bottom of the vial. Pre-rotation (i.e., fast rotation) was first performed to agitate the liquids, suspend, and circulate particles. Following rotation and illumination, the particles are in motion and the light causes reflections of the particles that make them visible (i.e., Tyndall effect). Visible particles were then observed using a magnifying lens. Videos and photographs of visible particles were obtained using a Samsung (seoul, South Korea) Galaxy device.
Several excipients were tested for their ability to solubilize particles produced as a result of enzymatic PS20 degradation. Solutions of concentrated HP-α-CD, HP-β-CD, HP-γ-CD, SBE-β-CD, PVP, PEG 1500, sucrose, and methionine were prepared in triplicate in pH 5.5 buffer. Particles from enzymatic PS20 degradation were prepared. Three solutions of 0.05% PS20 in pH 5.5 buffer were enzymatically degraded with 37.5 μg/mL PPL for 4.5 hours at room temperature, followed by 30 minutes of heat inactivation at 85° C. The degraded PS20 solutions were placed at 5° C. to allow for crystallization of particles.
After particle formation in the degraded PS20 solutions, the remaining sample preparation was conducted in a 5° C. cold room to prevent the PS20 derived particles from dissolving. Each degraded PS20 solution was divided into 11 aliquots and concentrated excipient was spiked into each the aliquots. The final concentration of excipient in each sample was as follows: 5% sucrose, 10 mg/mL methionine, 5% PVP, 5% PEG 1500, 15% HP-β-CD, 5% HP-β-CD, 0.5% HP-β-CD, 35.5 mM HP-α-CD, 35.5 mM HP-γ-CD, and 35.5 mM SBE-β-CD. After the addition of each excipient, samples were left at 5° C. overnight. The following day, vials were inspected for visible particles under a Seidenader visual inspection instrument. Subvisible particle counts were measured using a HIAC 9703 particle counter.

In data set [2] the target is T1, Candida Antarctica Lipase B (CALB) (Moesziomyces antarcticus, UniProt P41365).
T1 construct: purchased Sigma Aldrich Inc. (St. Louis, Mo.)
T1 sequence (P41365 26-342): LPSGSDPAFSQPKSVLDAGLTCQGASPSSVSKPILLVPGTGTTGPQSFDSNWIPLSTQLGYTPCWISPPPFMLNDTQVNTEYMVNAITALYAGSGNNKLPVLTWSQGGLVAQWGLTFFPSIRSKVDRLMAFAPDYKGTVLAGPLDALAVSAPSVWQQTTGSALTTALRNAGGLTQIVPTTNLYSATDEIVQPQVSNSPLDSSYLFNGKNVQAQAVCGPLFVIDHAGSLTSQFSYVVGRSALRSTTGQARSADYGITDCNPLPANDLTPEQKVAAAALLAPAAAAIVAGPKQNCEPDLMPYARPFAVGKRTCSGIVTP
Put plainly: Enzymatic degradation of PS20 by CALB, PS20 by RP-ELSD. Format: biochemical. The conditions noted are these: for PS20 degradation (in words): 15% (w/v) excipient. As to the method: Polysorbate concentration was determined using reverse phase ultra-performance liquid chromatography using evaporative light scattering detection (RP-ELSD). Samples were analyzed using an Agilent 1100 series high performance liquid chromatography system (HPLC) fitted with a Waters Oasis MAX cartridge column (20×2.1 mm, 30 μm particle size). The HPLC system was set up with a switching valve directing column flow-through to either waste or a Varian 380-LC evaporative light scattering detector set to 100° C. The mobile phases consisted of 2% formic acid in water (Pump A) and 2% formic acid in isopropanol (Pump B). The pump gradient was isocratic at 10% pump B during equilibration, linear to 20% pump B for 1 minute, isocratic at 20% pump B for 2.4 minutes, linear to 100% pump B for 0.1 minutes, isocratic at 100% pump B for 1.1 minutes, linear to 10% pump B for 0.1 minutes, and finally isocratic at 10% pump B for 1.9 minutes. The switching valve directed column flow-through to waste at the beginning of every injection, and then directed flow to the detector after 2.4 minutes until the end of the gradient. In order to quantitate the PS20 concentration, a standard curve was generated by injecting 20 μL of solutions containing between 0% w/v and 0.4% w/v PS20. For excipients which affected the migration time of PS20 through the column, PS20 standard curve solutions containing the relevant excipient were included in the analysis to facilitate accurate quantitation.
[…] Samples of 0.02% PS20 in pH 5.5 buffer containing either no additional excipient, 15% Sucrose, […] the enzymes porcine pancreatic lipase (PPL), lipoprotein lipase (LPL), Candida Antarctica lipase (CALB) and rabbit liver esterase (RLE) at room temperature. PPL samples were digested with 15 μg/mL enzyme for 4.5 hours. LPL samples were digested with 70 μg/mL enzyme for 5 hours. CALB samples were digested with 0.1 mg/mL immobilized enzyme for 1 hour. RLE samples were digested with 15 μg/mL enzyme for 5 hours. All digestions were conducted at room temperature.
PPL digestion was stopped by heat inactivation in an 85° C. water bath for 30 minutes. LPL and RLE digestion could not be stopped by heat inactivation, so the samples were analyzed immediately for PS20 content. CALB digestion was stopped by filtering out the immobilized enzyme beads. In order to permit particle formation, CALB samples were placed at 5° C. overnight. RLE and LPL samples were frozen at −20° C. overnight to impede enzymatic activity and were then thawed over ice immediately prior to particle analysis.
As described above, all samples were analyzed for PS20 content by high performance liquid chromatography (Agilent 1100 series) with an inline evaporative light scattering detector (Varian 380-LC series). Visible particle inspection was conducted on a Seidenader visual inspection instrument. Subvisible particle analysis was conducted on a HIAC 9703 particle counter.

The mark [3] stands for this setting: 0.02 (w/v) PS20, CALB digestion (FIG. 9).

Regarding “2-hydroxypropyl-α-cyclodextrin [HP-α-CD]”, in data set [1], the “amount of SVP after excipient spiked into degraded PS20 solution” value (“amount of SVP” below) is “significantly reduce the amount of SVP”. Further, in data set [2] (setting [3]), the “PS20 degradation (in words)” value is given as “no significant PS20 degradation”.

For “2-hydroxypropyl-β-cyclodextrin [HP-β-CD]”, the “amount of SVP” value in data set [1] is on record as “significantly reduce the amount of SVP”. The “visible particles after spiking excipient” value in data set [1] (15% (w/v) HP-β-CD, PS20 particles from PPL digestion) is reported as “immediate solubilization of visible particles; also recorded: no visible particles”. The “PS20 degradation (in words)” value in data set [2] (setting [3]) was “no significant PS20 degradation”. Also, the “Polysorbate 20 (Relative %)” value in data set [2] (15% w/v HP-β-CD, 0.02% PS20, pH 5.5, 0.1 mg/mL immobilized CALB, 1 hour, room temperature) was 85.7%.

As to “2-hydroxypropyl-γ-cyclodextrin [HP-γ-CD]”, the “amount of SVP” value in data set [1] was “significantly reduce the amount of SVP”. Moreover, the PS20 degradation in data set [2] (15% HP-γ-CD, 0.02 (w/v) PS20, CALB digestion (FIG. 9)) was ~82%.

`OC[C@H]1O[C@@](CO)(O[C@H]2O[C@H](CO)[C@@H](O)[C@H](O)[C@H]2O)[C@@H](O)[C@@H]1O` [sucrose, reference compound]: the “PS20 degradation (in words)” value in data set [2] (setting [3]) was “significant decreases in PS20 concentration”.
